Patent US11231416B2, “Virus-like particle (VLP) based small molecule-protein interaction trap” (VIB VZW, priority 2015, dated 2022)

Key:
Test in all cases: Viral trapping in VLPs, MS analysis
Format in all cases: binding
[1] = molecular target: T1, CALU (Homo sapiens, UniProt O43852); details: all proteins (incl. low confidence identifications)
T1 construct: endogenous in cells; host or cells: HEK293T
Procedure: (§1) For mass spectrometry, 10^7 HEK293T cells were seeded in five flasks (75 cm^2) and transfected the next day with a total of 15 μg DNA per flask using polyethylene imine reagent. The following DNA quantities were used per flask: 7.5 μg of GAG-eDHFR, 5.4 μg of mock vector and 2.1 μg of a 50/50 mix of pMD2.G and pcDNA3-FLAG-VSV-G. The small molecule fusions were added immediately after transfection to the producing cells at a concentration of 1 μM. The same dilution of dimethyl sulfoxide (DMSO) was added in control experiments to control the effect of this chemical on the cells. The cellular supernatant was harvested after 32 hours and was centrifuged for 3 minutes at 450×g to remove cellular debris. The cleared supernatant was then filtered using 0.45 μm filters (Millipore). A total of 100 μl MyOne™ Streptavidin T1 beads (Life Technologies) pre-loaded with 10 μg ANTI-FLAG® BioM2-Biotin antibody (Sigma-Aldrich®) was used to bind the tagged particles. Particles were allowed to bind for 2 hours by end-over-end rotation. The total supernatant was processed in three consecutive binding steps. Bead-particle complexes were washed once with washing buffer (TWB: 20 mM Tris-HCl pH 7.5, 150 mM NaCl) and were then eluted with FLAG peptide (200 μg/ml in TWB) and lysed by addition of SDS to a final concentration of 0.1%. After 5 minutes, SDS was removed using HiPPR Detergent Removal Spin Columns (Pierce, Thermo Scientific) followed by boiling and overnight digestion with 0.5 μg sequence-grade trypsin (Promega). After acidification (0.1% TFA final), the peptides were separated by nano-LC and directly analyzed with a Q Exactive instrument (Thermo Scientific).
(§2) For tamoxifen, four biological repeats were performed where the cells were treated with MTX-PEG6-tamoxifen after transfection. The obtained protein lists after viral trapping and MS analysis were challenged with protein lists coming from the four DMSO controls, the 19 control experiments and the lists obtained for the MTX-PEG6-simvastatin and MTX-PEG6-reversine (see below) for a total of 30 samples.

[2] = molecular target: T2, CYP51A1 (Homo sapiens, UniProt Q16850); details: all proteins (incl. low confidence identifications)
T2 construct: endogenous in cells; host or cells: HEK293T
Procedure: as §1, §2

[3] = molecular target: T3, DCAKD (Homo sapiens, UniProt Q8WVC6); details: all proteins (incl. low confidence identifications)
T3 construct: endogenous in cells; host or cells: HEK293T
Procedure: as §1, §2

[4] = molecular target: T4, DNAJB12 (Homo sapiens, UniProt Q9NXW2); details: all proteins (incl. low confidence identifications)
T4 construct: endogenous in cells; host or cells: HEK293T
Procedure: as §1, §2

[5] = molecular target: T5, ECE1 (Homo sapiens, UniProt P42892)
T5 construct: endogenous in cells; host or cells: HEK293T
Procedure: as §1, §2

[6] = molecular target: T6, EI24 (Homo sapiens, UniProt O14681); details: all proteins (incl. low confidence identifications)
T6 construct: endogenous in cells; host or cells: HEK293T
Procedure: as §1, §2

[7] = molecular target: T7, ENPP4 (Homo sapiens, UniProt Q9Y6X5); details: all proteins (incl. low confidence identifications)
T7 construct: endogenous in cells; host or cells: HEK293T
Procedure: as §1, §2

[8] = molecular target: T8, EPHX1 (Homo sapiens, UniProt P07099); details: all proteins (incl. low confidence identifications)
T8 construct: endogenous in cells; host or cells: HEK293T
Procedure: as §1, §2

[9] = molecular target: T9, ESYT1 (Homo sapiens, UniProt Q9BSJ8)
T9 construct: endogenous in cells; host or cells: HEK293T
Procedure: as §1, §2

[10] = molecular target: T10, GRAMD4 (Homo sapiens, UniProt Q6IC98); details: all proteins (incl. low confidence identifications)
T10 construct: endogenous in cells; host or cells: HEK293T
Procedure: as §1, §2

[11] = molecular target: T11, HSD17B12 (Homo sapiens, UniProt Q53GQ0); details: all proteins (incl. low confidence identifications)
T11 construct: endogenous in cells; host or cells: HEK293T
Procedure: as §1, §2

[12] = molecular target: T12, ILVBL (Homo sapiens, UniProt A1L0T0); details: all proteins (incl. low confidence identifications)
T12 construct: endogenous in cells; host or cells: HEK293T
Procedure: as §1, §2

[13] = molecular target: T13, ITPRIPL1 (Homo sapiens, UniProt Q6GPH6); details: all proteins (incl. low confidence identifications)
T13 construct: endogenous in cells; host or cells: HEK293T
Procedure: as §1, §2

[14] = molecular target: T14, LRRC59 (Homo sapiens, UniProt Q96AG4); details: all proteins (incl. low confidence identifications)
T14 construct: endogenous in cells; host or cells: HEK293T
Procedure: as §1, §2

[15] = molecular target: T15, MDH2 (Homo sapiens, UniProt P40926)
T15 construct: endogenous in cells; host or cells: HEK293T
Procedure: as §1, §2

[16] = molecular target: T16, NCS1 (Homo sapiens, UniProt P62166); details: all proteins (incl. low confidence identifications)
T16 construct: endogenous in cells; host or cells: HEK293T
Procedure: as §1, §2

[17] = molecular target: T17, PCSK5 (Homo sapiens, UniProt Q92824); details: all proteins (incl. low confidence identifications)
T17 construct: endogenous in cells; host or cells: HEK293T
Procedure: as §1, §2

[18] = molecular target: T18, REEP4 (Homo sapiens, UniProt Q9H6H4)
T18 construct: endogenous in cells; host or cells: HEK293T
Procedure: as §1, §2

[19] = molecular target: T19, REEP6 (Homo sapiens, UniProt Q96HR9)
T19 construct: endogenous in cells; host or cells: HEK293T
Procedure: as §1, §2

[20] = molecular target: T20, RTN3 (Homo sapiens, UniProt O95197); details: all proteins (incl. low confidence identifications)
T20 construct: endogenous in cells; host or cells: HEK293T
Procedure: as §1, §2

[21] = molecular target: T21, RTN4 (Homo sapiens, UniProt Q9NQC3)
T21 construct: endogenous in cells; host or cells: HEK293T
Procedure: as §1, §2

[22] = molecular target: T22, SEC61B (Homo sapiens, UniProt P60468); details: all proteins (incl. low confidence identifications)
T22 construct: endogenous in cells; host or cells: HEK293T
Procedure: as §1, §2

[23] = molecular target: T23, SEC61G (Homo sapiens, UniProt P60059)
T23 construct: endogenous in cells; host or cells: HEK293T
Procedure: as §1, §2

[24] = molecular target: T24, SEMA4G (Homo sapiens, UniProt Q9NTN9); details: all proteins (incl. low confidence identifications)
T24 construct: endogenous in cells; host or cells: HEK293T
Procedure: as §1, §2

[25] = molecular target: T25, SSNA1 (Homo sapiens, UniProt O43805)
T25 construct: endogenous in cells; host or cells: HEK293T
Procedure: as §1, §2

[26] = molecular target: T26, SSR3 (Homo sapiens, UniProt Q9UNL2); details: all proteins (incl. low confidence identifications)
T26 construct: endogenous in cells; host or cells: HEK293T
Procedure: as §1, §2

[27] = molecular target: T27, TAOK2 (Homo sapiens, UniProt Q9UL54); details: all proteins (incl. low confidence identifications)
T27 construct: endogenous in cells; host or cells: HEK293T
Procedure: as §1, §2

[28] = molecular target: T28, TBL2 (Homo sapiens, UniProt Q9Y4P3)
T28 construct: endogenous in cells; host or cells: HEK293T
Procedure: as §1, §2

[29] = molecular target: T29, TMPRSS13 (Homo sapiens, UniProt Q9BYE2); details: all proteins (incl. low confidence identifications)
T29 construct: endogenous in cells; host or cells: HEK293T
Procedure: as §1, §2

[30] = all proteins (incl. low confidence identifications)
[31] = proteins identified with >1 peptide (high confidence)

T19 sequence (Q96HR9 1-184 isoform Q96HR9-2): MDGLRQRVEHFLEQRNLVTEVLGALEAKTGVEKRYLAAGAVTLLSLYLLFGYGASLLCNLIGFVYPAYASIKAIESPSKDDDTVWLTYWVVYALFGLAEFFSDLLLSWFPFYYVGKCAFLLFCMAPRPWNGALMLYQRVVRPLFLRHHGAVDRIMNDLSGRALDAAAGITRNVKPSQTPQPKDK
T9 sequence (Q9BSJ8 whole entry): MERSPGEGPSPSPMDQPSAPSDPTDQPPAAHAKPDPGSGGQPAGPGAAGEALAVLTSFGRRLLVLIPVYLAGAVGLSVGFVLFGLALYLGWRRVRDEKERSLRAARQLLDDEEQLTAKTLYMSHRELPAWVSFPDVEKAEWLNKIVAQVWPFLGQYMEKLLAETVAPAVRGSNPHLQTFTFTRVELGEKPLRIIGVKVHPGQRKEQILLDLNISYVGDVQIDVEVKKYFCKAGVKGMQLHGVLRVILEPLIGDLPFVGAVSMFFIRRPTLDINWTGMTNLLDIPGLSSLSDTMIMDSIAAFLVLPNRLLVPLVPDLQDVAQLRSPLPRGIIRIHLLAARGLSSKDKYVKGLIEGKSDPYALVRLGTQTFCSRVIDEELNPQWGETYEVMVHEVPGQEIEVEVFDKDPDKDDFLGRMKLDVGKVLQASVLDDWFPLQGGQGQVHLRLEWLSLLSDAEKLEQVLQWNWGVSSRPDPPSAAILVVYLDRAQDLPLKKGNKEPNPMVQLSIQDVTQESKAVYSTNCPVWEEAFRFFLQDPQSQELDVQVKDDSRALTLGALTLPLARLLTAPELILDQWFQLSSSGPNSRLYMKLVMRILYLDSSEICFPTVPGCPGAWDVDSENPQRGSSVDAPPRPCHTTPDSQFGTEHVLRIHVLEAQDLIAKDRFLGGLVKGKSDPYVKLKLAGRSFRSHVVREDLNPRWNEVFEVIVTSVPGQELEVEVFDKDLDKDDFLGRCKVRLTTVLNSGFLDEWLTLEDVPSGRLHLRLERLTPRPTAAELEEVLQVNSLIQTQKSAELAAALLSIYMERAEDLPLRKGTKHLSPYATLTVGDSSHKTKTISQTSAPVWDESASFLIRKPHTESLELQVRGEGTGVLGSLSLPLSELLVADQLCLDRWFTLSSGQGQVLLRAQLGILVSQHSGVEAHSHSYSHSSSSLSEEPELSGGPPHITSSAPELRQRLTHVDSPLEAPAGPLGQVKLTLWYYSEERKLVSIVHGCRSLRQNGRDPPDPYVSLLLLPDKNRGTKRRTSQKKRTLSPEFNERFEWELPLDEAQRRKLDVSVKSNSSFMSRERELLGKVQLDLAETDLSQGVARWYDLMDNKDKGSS
T15 sequence (P40926 25-338): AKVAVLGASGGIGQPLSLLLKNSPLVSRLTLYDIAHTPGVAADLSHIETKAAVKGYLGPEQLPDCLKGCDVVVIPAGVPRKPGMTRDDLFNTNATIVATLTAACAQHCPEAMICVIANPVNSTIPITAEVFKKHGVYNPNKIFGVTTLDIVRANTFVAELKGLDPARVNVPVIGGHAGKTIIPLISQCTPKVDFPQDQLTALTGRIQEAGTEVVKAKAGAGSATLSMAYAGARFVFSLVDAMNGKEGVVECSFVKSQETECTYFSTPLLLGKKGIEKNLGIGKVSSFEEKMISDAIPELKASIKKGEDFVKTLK
T25 sequence (O43805 whole entry): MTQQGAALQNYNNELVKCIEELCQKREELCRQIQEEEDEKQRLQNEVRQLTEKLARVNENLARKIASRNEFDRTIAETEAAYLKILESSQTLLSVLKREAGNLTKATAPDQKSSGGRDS
T28 sequence (Q9Y4P3 whole entry): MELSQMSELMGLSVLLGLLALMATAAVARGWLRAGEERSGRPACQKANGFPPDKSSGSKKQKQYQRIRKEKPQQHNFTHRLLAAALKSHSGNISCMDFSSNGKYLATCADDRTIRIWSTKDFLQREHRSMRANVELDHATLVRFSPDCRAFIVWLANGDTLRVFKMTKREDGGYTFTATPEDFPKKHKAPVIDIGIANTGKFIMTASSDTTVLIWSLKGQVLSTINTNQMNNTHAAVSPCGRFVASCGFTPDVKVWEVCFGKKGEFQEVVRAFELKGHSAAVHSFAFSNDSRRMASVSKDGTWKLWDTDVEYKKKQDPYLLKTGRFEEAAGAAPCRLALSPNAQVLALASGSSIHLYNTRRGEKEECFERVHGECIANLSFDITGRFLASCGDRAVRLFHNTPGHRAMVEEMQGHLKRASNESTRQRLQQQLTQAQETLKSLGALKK
T23 sequence (P60059 whole entry): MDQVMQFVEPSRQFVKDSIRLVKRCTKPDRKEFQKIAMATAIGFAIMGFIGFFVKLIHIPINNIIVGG
T23 sequence (P61619 whole entry partner): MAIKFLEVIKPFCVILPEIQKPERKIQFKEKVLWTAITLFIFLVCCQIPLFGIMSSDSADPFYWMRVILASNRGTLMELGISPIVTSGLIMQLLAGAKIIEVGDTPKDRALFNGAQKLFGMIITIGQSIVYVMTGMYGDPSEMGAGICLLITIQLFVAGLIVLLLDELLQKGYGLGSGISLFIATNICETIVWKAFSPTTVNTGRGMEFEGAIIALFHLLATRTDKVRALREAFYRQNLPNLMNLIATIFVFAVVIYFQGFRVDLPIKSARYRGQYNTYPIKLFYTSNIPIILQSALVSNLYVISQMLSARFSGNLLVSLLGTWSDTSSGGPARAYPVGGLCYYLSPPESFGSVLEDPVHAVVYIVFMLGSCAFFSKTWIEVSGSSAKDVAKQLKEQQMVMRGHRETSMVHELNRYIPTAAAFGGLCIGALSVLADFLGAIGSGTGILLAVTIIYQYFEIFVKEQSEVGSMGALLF
T23 sequence (P60468 2-96 partner limits assumed): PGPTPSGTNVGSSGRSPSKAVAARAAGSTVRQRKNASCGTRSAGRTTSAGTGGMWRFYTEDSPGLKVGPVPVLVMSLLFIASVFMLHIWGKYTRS
T18 sequence (Q9H6H4 whole entry): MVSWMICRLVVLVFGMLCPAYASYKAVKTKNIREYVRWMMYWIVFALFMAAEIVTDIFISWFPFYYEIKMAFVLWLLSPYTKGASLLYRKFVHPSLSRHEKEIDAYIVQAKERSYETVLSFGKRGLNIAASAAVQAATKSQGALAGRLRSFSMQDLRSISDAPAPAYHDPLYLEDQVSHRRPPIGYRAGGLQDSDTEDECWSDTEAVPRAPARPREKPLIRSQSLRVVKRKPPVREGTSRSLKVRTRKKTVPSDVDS
T5 sequence (P42892 whole entry): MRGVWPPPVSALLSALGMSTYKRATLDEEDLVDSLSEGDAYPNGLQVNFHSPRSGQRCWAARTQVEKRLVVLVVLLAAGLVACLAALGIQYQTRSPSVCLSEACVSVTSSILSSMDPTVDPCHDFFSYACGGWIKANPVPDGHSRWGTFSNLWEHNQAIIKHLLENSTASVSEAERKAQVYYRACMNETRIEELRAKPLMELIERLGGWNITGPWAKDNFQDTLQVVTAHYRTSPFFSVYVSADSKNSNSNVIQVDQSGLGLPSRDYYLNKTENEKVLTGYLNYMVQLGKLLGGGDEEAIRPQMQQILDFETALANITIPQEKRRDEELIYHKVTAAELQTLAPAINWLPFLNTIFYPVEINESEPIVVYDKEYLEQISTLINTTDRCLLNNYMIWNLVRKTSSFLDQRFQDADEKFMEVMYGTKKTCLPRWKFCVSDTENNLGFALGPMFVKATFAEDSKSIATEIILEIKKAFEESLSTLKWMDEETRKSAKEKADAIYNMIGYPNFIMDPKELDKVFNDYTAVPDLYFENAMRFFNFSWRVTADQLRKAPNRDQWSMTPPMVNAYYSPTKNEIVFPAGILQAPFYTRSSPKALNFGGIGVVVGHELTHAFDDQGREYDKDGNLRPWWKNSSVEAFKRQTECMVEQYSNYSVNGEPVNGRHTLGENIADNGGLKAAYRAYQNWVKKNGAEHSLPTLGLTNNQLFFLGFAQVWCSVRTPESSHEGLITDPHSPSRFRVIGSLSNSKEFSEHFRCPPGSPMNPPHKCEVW
T16 sequence (P62166 whole entry): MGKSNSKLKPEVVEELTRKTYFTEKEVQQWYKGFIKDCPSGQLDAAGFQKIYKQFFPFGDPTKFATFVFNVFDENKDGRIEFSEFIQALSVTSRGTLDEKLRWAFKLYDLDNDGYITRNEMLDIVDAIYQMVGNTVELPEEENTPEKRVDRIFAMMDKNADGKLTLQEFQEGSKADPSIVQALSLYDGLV
T29 sequence (Q9BYE2 whole entry): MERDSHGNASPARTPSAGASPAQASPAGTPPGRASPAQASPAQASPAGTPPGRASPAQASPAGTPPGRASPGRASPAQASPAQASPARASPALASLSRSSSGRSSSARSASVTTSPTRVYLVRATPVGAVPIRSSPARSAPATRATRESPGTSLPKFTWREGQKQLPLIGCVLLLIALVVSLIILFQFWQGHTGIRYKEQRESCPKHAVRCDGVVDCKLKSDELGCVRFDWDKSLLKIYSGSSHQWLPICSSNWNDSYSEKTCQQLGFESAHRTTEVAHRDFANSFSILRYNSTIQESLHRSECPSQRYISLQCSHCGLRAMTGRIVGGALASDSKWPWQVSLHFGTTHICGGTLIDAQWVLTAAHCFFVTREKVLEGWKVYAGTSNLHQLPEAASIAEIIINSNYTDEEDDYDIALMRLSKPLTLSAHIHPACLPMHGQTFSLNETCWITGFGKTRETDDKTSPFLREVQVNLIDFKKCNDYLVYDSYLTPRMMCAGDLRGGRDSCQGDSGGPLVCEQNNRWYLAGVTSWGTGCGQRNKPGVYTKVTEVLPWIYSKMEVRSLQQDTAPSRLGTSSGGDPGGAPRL
T1 sequence (O43852 20-315): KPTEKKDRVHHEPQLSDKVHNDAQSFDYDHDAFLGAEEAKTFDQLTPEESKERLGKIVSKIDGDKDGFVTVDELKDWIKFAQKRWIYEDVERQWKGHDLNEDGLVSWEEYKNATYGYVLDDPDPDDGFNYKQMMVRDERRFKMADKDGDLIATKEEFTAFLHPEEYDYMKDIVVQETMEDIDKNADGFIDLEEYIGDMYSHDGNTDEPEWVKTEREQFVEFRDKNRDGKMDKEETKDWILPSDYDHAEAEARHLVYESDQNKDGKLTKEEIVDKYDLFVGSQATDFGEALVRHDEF

SMILES: CCC(=C(c1ccccc1)c1ccc(OCCN(C)Cc2cn(CCOCCOCCOCCOCCOCCNC(=O)CCC(NC(=O)c3ccc(N(C)Cc4cnc5nc(N)nc(N)c5n4)cc3)C(=O)O)nn2)cc1)c1ccccc1 (centres unmarked) [MTX-PEG6-tamoxifen]
- Recurrence (x/4) [1]: 1 x/4
- Recurrence (x/4) [2]: 1 x/4
- Recurrence (x/4) [3]: 2 x/4
- Recurrence (x/4) [4]: 1 x/4
- Recurrence (x/4) [5, 30]: 1 x/4
- Recurrence (x/4) [5, 31]: 1 x/4
- Recurrence (x/4) [6]: 2 x/4
- Recurrence (x/4) [7]: 1 x/4
- Recurrence (x/4) [8]: 1 x/4
- Recurrence (x/4) [9, 30]: 1 x/4
- Recurrence (x/4) [9, 31]: 1 x/4
- Recurrence (x/4) [10]: 1 x/4
- Recurrence (x/4) [11]: 1 x/4
- Recurrence (x/4) [12]: 1 x/4
- Recurrence (x/4) [13]: 1 x/4
- Recurrence (x/4) [14]: 1 x/4
- Recurrence (x/4) [15, 30]: 1 x/4
- Recurrence (x/4) [15, 31]: 1 x/4
- Recurrence (x/4) [16]: 1 x/4
- Recurrence (x/4) [17]: 1 x/4
- Recurrence (x/4) [18, 30]: 2 x/4
- Recurrence (x/4) [18, 31]: 2 x/4
- Recurrence (x/4) [19, 30]: 4 x/4
- Recurrence (x/4) [19, 31]: 3 x/4
- Recurrence (x/4) [20]: 1 x/4
- Recurrence (x/4) [21, 30]: 1 x/4
- Recurrence (x/4) [21, 31]: 1 x/4
- Recurrence (x/4) [22]: 1 x/4
- Recurrence (x/4) [23, 30]: 2 x/4
- Recurrence (x/4) [23, 31]: 1 x/4
- Recurrence (x/4) [24]: 1 x/4
- Recurrence (x/4) [25, 30]: 4 x/4
- Recurrence (x/4) [25, 31]: 2 x/4
- Recurrence (x/4) [26]: 1 x/4
- Recurrence (x/4) [27]: 1 x/4
- Recurrence (x/4) [28, 30]: 3 x/4
- Recurrence (x/4) [28, 31]: 2 x/4
- Recurrence (x/4) [29]: 1 x/4
